Measurements: patent publication US20070049518A1, “Novel method of treatment of inflammatory skin conditions” (priority 2005, published 2007)
pIC50: −log10 of the molar value. “And” between values parts separate entries of the source, which are not always exact repeats. Equal values may be shown once. Read-outs that look alike come from different tables or passages of the source.

Tests used:
S. aureus 8325-4 = assay: S. aureus growth by turbidometry in micro-titre plates; format: cell-based, Staphylococcus aureus; settings: Staphylococcus aureus, 83254, read-out: IC50 value (50% decrease in terminal absorbance); overnight, absorbance 620 nm
Procedure: Tryptic soy broth (0.18 ml) containing S. aureus 8325-4 (approximately 10^5 cells) was mixed with 20 μl 20% (v/v) DMSO vehicle±compound in the wells of a flat-bottomed clear polystyrene 96-well micro-titre plate. The plate was incubated overnight at 37° C./220 rpm and the absorbance measured at 620 nm the following day.

[1] = molecular target: T1, metalloprotease (aureolysin) activity in Staphylococcus aureus 8325-4 culture supernatants (Staphylococcus aureus, UniProt P81177); assay: Metalloprotease activity in S. aureus culture supernatants; format: biochemical
T1 construct: 4 μl S. aureus culture supernatant; endogenous in cells; host or cells: Staphylococcus aureus 8325-4 (culture supernatant)
Procedure: The culture was then centrifuged to remove the cells and the supernatant stored at −70° C. for subsequent use. […] Activity was expressed as the rate of increase in fluorescence as a function of time.

[2] = molecular target: T2, purified aureolysin type I (Staphylococcus aureus, UniProt P81177); assay: biochemical
T2 construct: purchased BioCentrum Ltd

[3] = molecular target: T3, purified aureolysin type II (Staphylococcus aureus, UniProt P81177); assay: Aureolysin enzyme inhibition assay, type II; format: biochemical
T3 sequence (P81177 1-509): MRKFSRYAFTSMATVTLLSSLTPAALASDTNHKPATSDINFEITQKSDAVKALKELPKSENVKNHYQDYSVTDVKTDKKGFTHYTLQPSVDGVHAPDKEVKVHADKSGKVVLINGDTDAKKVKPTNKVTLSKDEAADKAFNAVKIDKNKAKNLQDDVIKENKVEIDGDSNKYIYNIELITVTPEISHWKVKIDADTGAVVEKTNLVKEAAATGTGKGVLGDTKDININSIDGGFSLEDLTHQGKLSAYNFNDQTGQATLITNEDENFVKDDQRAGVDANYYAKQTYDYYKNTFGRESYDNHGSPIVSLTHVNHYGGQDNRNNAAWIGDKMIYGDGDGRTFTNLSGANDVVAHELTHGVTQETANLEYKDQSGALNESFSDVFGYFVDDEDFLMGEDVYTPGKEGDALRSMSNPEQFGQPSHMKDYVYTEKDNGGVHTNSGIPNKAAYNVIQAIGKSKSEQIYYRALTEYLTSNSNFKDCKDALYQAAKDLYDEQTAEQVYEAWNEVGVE

[4] = test system: S. aureus ATCC 27733 or 8325-4; assay: Milk agar plate assay of S. aureus protease activity; format: cell-based, Staphylococcus aureus; settings: FIG. 2
Procedure: In a second assay for measuring S. aureus protease activity directly, S. aureus ATCC 27733 or 8325-4 was cultured on 10% (v/v) skimmed milk agar plates containing 2% (v/v) DMSO with or without compound. Compounds dissolved in DMSO were incorporated into the solid medium immediately prior to pouring.

human MMP-2 = molecular target: T4, human MMP-2 (Homo sapiens, UniProt P08253); assay: MMP enzyme inhibition assay, MMP-2; format: biochemical; settings: for pIC50: pH 7.5, 37° C., 1 hour
T4 construct: purchased Calbiochem
T4 sequence (P08253 110-660): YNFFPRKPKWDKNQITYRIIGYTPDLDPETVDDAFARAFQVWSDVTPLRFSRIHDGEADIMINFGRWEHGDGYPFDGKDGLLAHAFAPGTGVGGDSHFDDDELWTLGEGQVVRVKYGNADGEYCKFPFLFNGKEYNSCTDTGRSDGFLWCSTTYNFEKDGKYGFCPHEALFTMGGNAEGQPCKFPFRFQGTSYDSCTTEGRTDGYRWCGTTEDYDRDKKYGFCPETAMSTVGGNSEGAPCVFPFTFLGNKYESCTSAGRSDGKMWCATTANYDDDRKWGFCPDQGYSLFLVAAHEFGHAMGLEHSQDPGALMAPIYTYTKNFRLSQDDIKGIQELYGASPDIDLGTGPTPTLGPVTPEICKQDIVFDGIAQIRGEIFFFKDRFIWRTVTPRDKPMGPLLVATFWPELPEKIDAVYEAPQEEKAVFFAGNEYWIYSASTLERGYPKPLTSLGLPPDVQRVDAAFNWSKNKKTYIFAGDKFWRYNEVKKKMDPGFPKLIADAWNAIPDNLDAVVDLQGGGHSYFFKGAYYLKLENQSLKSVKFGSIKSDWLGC

human MMP-9 = molecular target: T5, human MMP-9 (Homo sapiens, UniProt P14780); assay: MMP enzyme inhibition assay, MMP-9; format: biochemical; settings: for pIC50: pH 7.5, 37° C., 1 hour
T5 construct: purchased Calbiochem
T5 sequence (P14780 94-707): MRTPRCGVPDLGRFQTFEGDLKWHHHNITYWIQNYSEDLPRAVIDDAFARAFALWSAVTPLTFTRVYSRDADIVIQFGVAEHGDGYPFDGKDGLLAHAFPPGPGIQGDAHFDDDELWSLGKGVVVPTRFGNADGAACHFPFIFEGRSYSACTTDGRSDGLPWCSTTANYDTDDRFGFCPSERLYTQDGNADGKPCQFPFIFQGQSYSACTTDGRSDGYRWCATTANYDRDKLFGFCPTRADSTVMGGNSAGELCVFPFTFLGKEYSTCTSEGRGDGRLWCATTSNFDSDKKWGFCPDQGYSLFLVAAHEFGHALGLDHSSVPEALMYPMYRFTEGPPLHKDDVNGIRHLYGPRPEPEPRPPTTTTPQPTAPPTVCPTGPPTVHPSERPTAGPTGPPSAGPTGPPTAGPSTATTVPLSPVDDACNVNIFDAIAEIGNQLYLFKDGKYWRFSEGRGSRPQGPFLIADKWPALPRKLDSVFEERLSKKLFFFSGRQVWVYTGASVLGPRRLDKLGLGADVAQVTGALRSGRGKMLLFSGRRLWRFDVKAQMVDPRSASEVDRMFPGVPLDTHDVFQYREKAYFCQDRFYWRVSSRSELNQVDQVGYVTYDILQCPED

human MMP-1 = molecular target: T6, human MMP-1 (Homo sapiens, UniProt P03956); assay: MMP enzyme inhibition assay, MMP-1; format: biochemical; settings: for pIC50: pH 7.5, 37° C., 1 hour
T6 construct: purchased Calbiochem
T6 sequence (P03956 100-469): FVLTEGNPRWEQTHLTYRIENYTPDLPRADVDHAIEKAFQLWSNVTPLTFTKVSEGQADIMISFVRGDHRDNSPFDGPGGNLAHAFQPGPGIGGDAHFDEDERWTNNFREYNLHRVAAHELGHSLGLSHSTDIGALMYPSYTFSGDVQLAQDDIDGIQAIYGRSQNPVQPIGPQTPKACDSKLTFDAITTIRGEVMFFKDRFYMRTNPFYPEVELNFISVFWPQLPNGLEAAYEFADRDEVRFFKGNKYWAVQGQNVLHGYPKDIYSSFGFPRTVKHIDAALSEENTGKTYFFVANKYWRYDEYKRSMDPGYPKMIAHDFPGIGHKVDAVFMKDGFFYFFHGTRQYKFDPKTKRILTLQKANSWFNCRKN

human MMP-8 = molecular target: T7, human MMP-8 (Homo sapiens, UniProt P22894); assay: MMP enzyme inhibition assay, MMP-8; format: biochemical; settings: for pIC50: pH 7.5, 37° C., 1 hour
T7 construct: purchased Calbiochem
T7 sequence (P22894 101-467): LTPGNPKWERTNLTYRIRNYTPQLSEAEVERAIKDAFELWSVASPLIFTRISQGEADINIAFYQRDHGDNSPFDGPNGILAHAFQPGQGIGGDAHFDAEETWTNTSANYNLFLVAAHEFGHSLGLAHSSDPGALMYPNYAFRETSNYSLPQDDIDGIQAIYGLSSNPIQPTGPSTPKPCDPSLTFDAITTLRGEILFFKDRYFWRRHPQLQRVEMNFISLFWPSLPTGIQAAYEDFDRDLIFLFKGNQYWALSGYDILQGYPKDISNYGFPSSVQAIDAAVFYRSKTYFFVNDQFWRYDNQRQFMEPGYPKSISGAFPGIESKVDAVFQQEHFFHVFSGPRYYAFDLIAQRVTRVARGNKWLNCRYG

aureolysin = aureolysin (Staphylococcus aureus, UniProt P81177); assay: Inhibition of aureolysin-mediated pro-uPA activation; settings: for Urokinase activity after pro-uPA activation: Expt. 2, Compound 13 20 μM, pH 5.6
From the text: Under these conditions the extent of pro-uPA cleavage as assessed by uPA activity was directly proportional to the concentration of aureolysin in the assay.

[5] = test system: Human skin epidermal keratinocytes; assay: Keratinocyte activation, IL-8 production; format: cell-based; settings: 48 hours, aureolysin 50 μg/ml
From the text: Activated keratinocytes produce IL-8, a proinflammatory chemokine. Many bacterial products cause the activation of keratinocytes. Aureolysin may be evaluated for its effects on IL-8 production by keratinocytes. Human skin epidermal keratinocytes (TCS Cellworks) are maintained as per instructions. Proliferating cultures are trypsinised, harvested, treated with a trypsin inhibitor and resuspended in growth medium at approximately 50,000 cells/well, to provide confluent monolayers in 96 well plates. Cells are incubated overnight at 37° C. at 5% CO2 to allow recovery, the spent medium aspirated from the wells and replaced with fresh growth medium. The cells are incubated at 37° C. at 5% CO2 for a further 24 or 48 hours with aureolysin or buffer control.
The supernatants are removed from each well and the concentration of IL-8 is determined using a human IL-8 ELISA development kit from R&D systems (Catalog Number: DY208) using the manufacturers instructions.
In these experiments, the cells are incubated at 37° C. at 5% CO2 for 48 hours with aureolysin or buffer control. Poly IC and lipoteichoic acid (LTA), which stimulate IL-8 production in keratinocytes were used as positive controls.

[6] = pH 6.8, 37° C., 1 hour; read-out: IC50 value Aureolysin type II

| Compound | pIC50 [1] | pIC50 [2] | pIC50 [3, 6] | pIC50 (human MMP-2) | pIC50 (human MMP-9) | pIC50 (human MMP-1) | pIC50 (human MMP-8) | also measured |
| --- | --- | --- | --- | --- | --- | --- | --- | --- |
| CCCCC[C@H](CC(=O)NO)C(=O)N[C@H](C(=O)N1CCC[C@H]1CO)C(C)C [Actinonin, actinonin, reference compound] | – | – | – | – | – | – | – | pIC50 (S. aureus 8325-4): 5.59 |
| CNC(=O)[C@H](Cc1c[nH]c2ccccc12)NC(=O)[C@@H](CC(=O)NO)CC(C)C [Compound 1, ilomastat] | 6.24 | 6.59 | 6.37 | – | – | – | – | – |
| CNC(=O)[C@@H](NC(=O)[C@H](CC(C)C)[C@H](O)C(=O)NO)C(C)(C)C [Compound 3, marimastat] | – | – | – | – | – | – | – | inhibition of proteolytic activity, zone of clearance of milk proteins (in words) [4]: inhibition of proteolytic activity |
| CC(C)C[C@@H](C(=O)N[C@H](C(=O)N(C)C)C(C)(C)C)[C@H](O)C(=O)NO [Compound 5] | 4.36 | 4.57 | 4.39 | 8.11 | 7.52 | 7.96 | 8.41 | – |
| CO[C@H](C(=O)NO)[C@@H](CC(C)C)C(=O)N[C@H](C(=O)Nc1ccccn1)C(C)(C)C [Compound 7, solimastat] | 5.35 | 5.66 | 5.46 | 8.49 | 8.29 | 8.48 | 8.77 | – |
| CC(C)C[C@@H](C(=O)N[C@H](C(=O)Nc1ccccn1)C(C)(C)C)[C@H](O)C(=O)NO [Compound 9] | 5.54 | 5.82 | 5.62 | 8.74 | 8.39 | 8.51 | 8.77 | – |
| CNC(=O)C(CCc1ccccc1)NC(=O)C(CC(=O)NO)CC(C)C (stereo not shown) [Compound 13] | 6.16 | 6.48 | 6.16 | 8.96 | 8.72 | 8.25 | 8.80 | Urokinase activity after pro-uPA activation (aureolysin; aureolysin 0 μg/ml): 0.11 A405/0.5 h/μg; Urokinase activity after pro-uPA activation (aureolysin; aureolysin 0.1 μg/ml): 0.36 A405/0.5 h/μg; Urokinase activity after pro-uPA activation (aureolysin; aureolysin 0.3 μg/ml): 0.52 A405/0.5 h/μg; Urokinase activity after pro-uPA activation (aureolysin; aureolysin 0.8 μg/ml): 0.96 A405/0.5 h/μg; inhibition at 20 µM (aureolysin; pH 5.6, read-out: inhibition of aureolysin activation of pro-uPA): ≥ 82% |
| COc1ccc(S(=O)(=O)N(CC(=O)NO)CC(C)C)cc1 [Compound 14] | 5.44 | 6.00 | – | 8.34 | 8.00 | – | 7.68 | pIC50 ([3]; read-out: IC50 value Aureolysin type II; pH 6.8, 37° C., 1 hour): 5.60 |
| CC(C)C[C@H](NP(=O)(O)O[C@@H]1O[C@@H](C)[C@H](O)[C@@H](O)[C@H]1O)C(=O)N[C@@H](Cc1c[nH]c2ccccc12)C(=O)O [Compound 15, phosphoramidon] | 5.48 | 5.55 | 5.64 | – | – | – | – | inhibition at 2.7 µM (human MMP-2; @ 2.7 μM): 0%; inhibition at 2.7 µM (human MMP-9; @ 2.7 μM): 0%; inhibition at 2.7 µM (human MMP-1; @ 2.7 μM): 0%; inhibition at 2.7 µM (human MMP-8; @ 2.7 μM): 0% |
| CNC(=O)[C@H](CCc1ccccc1)NC(=O)[C@H](CC(=O)NO)CC(C)C [Compound 16, (S)—N4-hydroxy-2-isobutyl-N1-((S)-1-(methylamino)-1-oxo-4-phenylbutan-2-yl)succinamide] | 7.02 | 7.24 | 7.03 | 5.68 | 5.70 | 5.21 | 5.80 | – |
| CNC(=O)[C@H](CCc1ccccc1)NC(=O)[C@@H](CC(=O)NO)CC(C)C [Compound 17, (R)—N4-hydroxy-2-isobutyl-N1-((S)-1-(methylamino)-1-oxo-4-phenylbutan-2-yl)succinamide] | 5.64 | 5.92 | 5.64 | 8.62 | 8.23 | 7.77 | 8.36 | – |
| Poly IC | – | – | – | – | – | – | – | IL-8 ± SE [5]: 282 pg/mL and 282 ± 0.9 pg/mL |
| lipoteichoic acid [LTA] | – | – | – | – | – | – | – | IL-8 ± SE [5]: 454 pg/mL and 454 ± 61.0 pg/mL |
